Experimental data published in patent publication US8552161B2, “Saponin compounds, methods of preparation thereof, use thereof and pharmaceutical compositions” (Uniwersytet W Bialymstoku, priority 2009, dated 2013).

Test system: human glioblastoma cell line T98
Assay: Calcein AM cytotoxicity assay, T98
Format: cell-based
Details: 72 h, means ± SD, three independent experiments in triplicate
Method: Stock solutions (10 mmol/l) of the tested compounds were prepared by dissolving relevant quantity of the substance in DMSO. Dulbecco's modified Eagle's medium (DMEM, RPMI 1640, F-12 medium), fetal bovine serum (FBS), L-glutamine, penicillin, streptomycin were purchased from Sigma (MO, USA). Calcein AM was obtained from Molecular Probes (Invitrogen Corporation, CA, USA).
The screening cell lines (T-lymphoblastic leukaemia cell line CEM, breast carcinoma cell line MCF-7, cervical carcinoma cell line HeLa, human glioblastoma cell line T98, human malignant melanoma G-361, human osteogenic sarcoma cell line HOS, carcinomic human alveolar basal epithelial cells A549, human colon carcinoma cells HCT 116 and human fibroblasts BJ) were obtained from the American Type Culture Collection (Manassas, Va., USA). All cell lines were cultured in DMEM medium (Sigma, Mo., USA). Medium was supplemented with 10% heat-inactivated fetal bovine serum, 2 mmol/l L-glutamine and 1% penicillin-streptomycin. The cell lines were maintained under standard cell culture conditions at 37° C. and 5% CO2 in a humid environment. Cells were subcultured twice or three times a week using the standard trypsinization procedure.
Cytotoxic activities of the novel compounds, obtained according to this invention, were tested in vitro against following cancer cell lines: T-lymphoblastic leukemia cell line CEM; breast carcinoma cell line MCF7, lung carcinoma cell line A549, cervical carcinoma cell line HeLa, malignant melanoma cell line G-361, osteosarcoma cell line HOS, human glioblastoma cell line T98, human colon carcinoma cells HCT 116 and normal human fibroblasts BJ. All cell lines were cultured in DMEM medium (Sigma, Mo., USA) supplemented with 10% fetal calf serum, 2 mM glutamine, 100 U/ml penicillin and 100 μg/ml streptomycin, at 37° C. in a fully humidified atmosphere containing 5% CO2. Suspensions of these lines (ca. 1.0×10^5 cells/ml) were placed in 96-well microtitre plates and after 3 h of stabilization the tested compounds were added in serially diluted concentrations. Saponins were dissolved in dimethylsulfoxide (DMSO) before addition to cultures. Control cultures were treated with DMSO alone. The final concentration of DMSO in the reaction mixtures never exceeded 0.6%. Four-fold dilutions of the intended test concentration were added at time zero in 20 μl aliquots to the microtitre plate wells. Usually, each test compound was evaluated at six 4-fold dilutions and in routine testing; the highest well concentration was 50 μM, although this varied in a few cases, depending on the test compound. After 72 h of culture, the cells were incubated with Calcein AM solution (Molecular Probes) for 1 h. The fluorescence of viable cells was quantified using a Fluoroscan Ascent instrument (Microsystems). The percentage of surviving cells in each well was calculated from the equation […]=(ODdrug exposed well/mean ODcontrol wells)×100%. The IC50 value, the drug concentration lethal to 50% of the tumour cells, was calculated from the obtained dose-response curves.

Compound `C/C=C/C(=O)OC[C@@H](C)[C@@]1(O)[C@@H](O[C@@H]2OC[C@H](O)[C@H](O[C@@H]3OC[C@@H](O)[C@H](O)[C@H]3OC(=O)c3ccc(OC)cc3)[C@H]2OC(C)=O)C[C@H]2[C@@H]3CC=C4C[C@@H](O)CC[C@]4(C)[C@H]3CC[C@@]21C` [Compound 7, (20R)-21-O-[(E)-but-2-enoyl]-20-methylpregn-5-ene-3β,16β,17α,21-tetraol 16-O-{2-O-(4-methoxybenzoyl)-β-D-xylopyranosyl-(1→3)-2′-O-acetyl-α-L-arabinopyranoside}] has an IC50 of 940 ± 20 nM.
